The target in one assay is T1, MLLT3 (Homo sapiens, UniProt P42568).
T1 construct: in full length MLLT3 N-terminal NanoLuc, Histone; host or cells: HEK293
T1 sequence (P42568 1-568): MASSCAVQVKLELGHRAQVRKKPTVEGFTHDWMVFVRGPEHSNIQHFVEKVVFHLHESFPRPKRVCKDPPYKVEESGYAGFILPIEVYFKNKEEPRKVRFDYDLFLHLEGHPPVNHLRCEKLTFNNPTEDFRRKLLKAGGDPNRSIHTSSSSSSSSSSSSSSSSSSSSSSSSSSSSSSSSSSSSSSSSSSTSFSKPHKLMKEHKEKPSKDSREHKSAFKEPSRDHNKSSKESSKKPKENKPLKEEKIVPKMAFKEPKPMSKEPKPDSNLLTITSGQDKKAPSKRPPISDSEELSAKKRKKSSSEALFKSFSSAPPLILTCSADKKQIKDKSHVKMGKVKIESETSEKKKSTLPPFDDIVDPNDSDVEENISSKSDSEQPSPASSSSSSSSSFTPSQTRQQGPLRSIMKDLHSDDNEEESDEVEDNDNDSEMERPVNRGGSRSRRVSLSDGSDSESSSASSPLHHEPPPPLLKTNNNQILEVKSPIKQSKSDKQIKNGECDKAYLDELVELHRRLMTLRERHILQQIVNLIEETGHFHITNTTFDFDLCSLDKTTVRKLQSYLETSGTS
Briefly: NanoBRET assay, full-length MLLT3-NanoLuc / histone H3.3-HaloTag in HEK293 cells. The settings on record: 24 h, representative assay. In kind it is cell-based. The method, then:
II.V NanoLuciferase Bioluminescent Resonance Energy Transfer (NanoBRET) Assay[2]
HEK293 cells ([…]) were plated in each well of a 6-well plate after 6 h cells were co-transfected with Histone H3.3-HaloTag (NM_002107) and a NanoLuciferase fusion of MLLT1 or MLLT3 (WT sequences from Promega HaloTag® human ORF in pFN21A) at a 1:500 and 1:10 (NanoLuc® to HaloTag®) ratio respectively with FuGENE HD transfection regent. Sixteen hours post-transfection, cells were collected and exchanged into media containing phenol red-free DMEM and 4% FBS in the absence (control sample) or the presence (experimental sample) of 100 nM NanoBRET 618 fluorescent ligand (Promega).
Cell density was adjusted to 2 x 10^5 cells/mL and then seeded 100 µL/well in a white 96-well plate (Corning Costar #3917). Compounds were then added directly to media (in the presence of SAHA 2.5 µM) at final concentrations 0.01-30 μM or an equivalent amount of DMSO as a vehicle control, and the plates were incubated for 24 h at 37 °C in the presence […]
NanoBRET Nano-Glo substrate (Promega) was added to both control and experimental samples at a final concentration of 10 µM. Readings were performed within 5 minutes using a ClarioSTAR (BMG labtech) equipped with LP 480 and 610 nm filters. A corrected BRET ratio was calculated and is defined as the ratio of the emission at 610 nm/[…] for experimental samples minus the emission at 6 10 nm/640 nm for control samples (not incubated with NanoBRET fluorescent ligand). BRET ratios are expressed as milliBRET units (mBU), where 1 mBU corresponds to the corrected BRET ratio multiplied by 1000.
3.3 C-terminal HaloTag in HEK293 cells. Treatment with SAHA (2.5 µM) alone increases MLLT3- […]
dependent manner. Mean±SD of BRET ratio (mBU), n=4 technical replicates.
(also on this page, place not known: 5) -well H3.3 -HaloTag pFN21A ) ( NanoLuc® H aloTag®) post -transfection, red -free Nano -Glo 10 5 6 10 6 10 l igand). cells . […]
Background: Bioluminescence resonance energy transfer reports proximity on the nanometre scale.

For a further assay, the target named is T2, MLLT1 (Homo sapiens, UniProt Q03111).
T2 construct: We also developed a full length MLLT1:Histone 3.3 (H3.3) NanoBRET assay; host or cells: HEK293
T2 sequence (Q03111 whole entry): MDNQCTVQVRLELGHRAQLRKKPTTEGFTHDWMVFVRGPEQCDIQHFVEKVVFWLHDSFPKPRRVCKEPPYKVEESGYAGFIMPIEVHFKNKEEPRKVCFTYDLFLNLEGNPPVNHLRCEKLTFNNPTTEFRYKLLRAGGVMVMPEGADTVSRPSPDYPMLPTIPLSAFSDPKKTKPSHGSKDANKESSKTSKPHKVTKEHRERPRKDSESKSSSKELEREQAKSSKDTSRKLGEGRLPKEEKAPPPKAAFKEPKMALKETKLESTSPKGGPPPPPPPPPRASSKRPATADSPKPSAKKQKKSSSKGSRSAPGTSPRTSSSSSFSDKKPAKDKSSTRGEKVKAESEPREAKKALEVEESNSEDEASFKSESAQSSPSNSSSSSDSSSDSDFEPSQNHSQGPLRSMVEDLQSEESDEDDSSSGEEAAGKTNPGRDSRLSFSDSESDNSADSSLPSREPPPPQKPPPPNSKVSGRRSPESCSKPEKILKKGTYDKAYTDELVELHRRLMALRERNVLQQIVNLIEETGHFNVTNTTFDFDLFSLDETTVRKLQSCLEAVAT
In words: NanoBRET assay, full length MLLT1:Histone 3.3 in HEK293 cells. The following applies: relative to the DMSO control. In kind it is cell-based.

Experimental for MLLT1: Compounds were then added directly to media (in the presence of SAHA 2.5 M) at final concentrations 0.01-30 μM or an equivalent amount of DMSO as a vehicle control, and the plates were incubated for 24 h at 37 °C in the presence

Regarding `O=C(CCCCCCC(=O)Nc1ccccc1)NO` [SAHA, suberoylanilide hydroxamic acid, reference compound], the “MLLT3-Histone 3.3 interaction (mBU)” value at MLLT3 is listed as “increases”. In addition, the “BRET activity (mBU), MLLT1:H3.3 NanoBRET” value on MLLT1 is reported as “significant increase in BRET activity”.

These data come from PMC6348381, “Discovery of an MLLT1/3 YEATS Domain Chemical Probe” (Angewandte Chemie (International Ed. in English), 2018).
